Source: US20240390295A1, “METHODS FOR TREATING DEPRESSION” (JANSSEN PHARMACEUTICA NV, priority 2020, published 2024)

Columns and labels:
Format in all cases: in vivo, human
[1] = tested on: adult patients (aged 18-64 years) with TRD; test: MOAA/S-defined sedation (score <5)
Procedure: For measuring treatment session induced sedation, one of skill in the art may use the Modified Observer's Assessment of Alertness/Sedation Scale (MOAA/S). […] For subjects with a score of 4, the assessment should be repeated every 15 minutes. And for subjects with a score of ≤3, the assessment should be repeated every 5 minutes until the score. In some embodiments, the results of the MOAA/S may be correlated to levels of sedation defined by the American Society of Anesthesiologists (ASA) continuum.
(§1) Vital signs, the Clinician-Administered Dissociative States Scale (CADSS), and the Modified Observer's Assessment of Alertness/Sedation (MOAA/S) were assessed at baseline and all treatment sessions (predose, and at 40 minutes, 1 hour [vital signs only unless spontaneously reported by the patient], and 1.5 hours postdose). Routine blood pressure (BP) readings were conducted at each treatment session, with elevations reported as AEs based on the clinician's judgement. The CADSS assessed treatment-emergent dissociative symptoms and consists of 23 questions, each coded on a 5-point scale (0=not at all, 1-mild, 2-moderate, 3=severe, 4-extreme), yielding a total score 0-92.11 A CADSS total score >4 indicated the presence of dissociative symptoms. The MOAA/S assessed treatment-emergent sedation: scores range from (=no response to painful stimulus to 5=readily responds to name spoken in normal tone. Any decrease in MOAA/s from pre-dose (score <5) indicated some degree of sedation. An abnormal elevation in BP was defined as systolic BP ≥180 mmHg and ≥20 mmHg higher than baseline and/or diastolic BP ≥105 mmHg and ≥15 mmHg greater than baseline.
(§2) This analysis included any treatment sessions in which patients received ESK (either open-label or blinded). The occurrence and severity of AEs were assessed within the following timeframes: Month 1 (Week 1 and Weeks 2-4), Month 2 (Weeks 5-8), Months 3-6 and Months 6-12. Severity of clinician-reported AEs were scored as 0 (no AE), 1 (mild), 2 (moderate), and 3 (severe). To examine AEs in individual patients over time, only patients who received at least one ESK dose in the following period were included in the analyses of each respective period. Thus, patient data were retained in (i) Week 1 if the patient received ≥1 ESK dose in Weeks 2-4, (ii) Weeks 2-4 if the patient received ≥1 ESK dose in Weeks 5-8, (iii) Weeks 5-8 if the patient received ≥1 ESK dose in Months 3-6, and (iv) Months 3-6 if the patient received ≥1 ESK dose in Months 6-12.

[2] = tested on: adult patients (aged 18-64 years) with TRD; test: Measure-based increased blood pressure (abnormal elevation in BP)
Procedure: as §1, §2

[3] = tested on: adult patients (aged 18-64 years) with TRD; test: Severity of recurrent clinician-reported AEs (0 no AE, 1 mild, 2 moderate, 3 severe)
Procedure: Patients were monitored for >90 minutes after ESK administration at each treatment session, after which time they could leave the clinical site at the clinician's discretion. AEs were monitored and reported, and safety assessments, including clinical laboratory tests and physical examinations, were conducted throughout the study. Clinician-reported AEs were categorized as mild, moderate, or severe based on clinical judgement (Table 1).
as §2
Week 1 and Week 4 were set a priori as index weeks because they are the beginning and end of the induction period. Frequencies and maximum-reported severities of AEs reported during these index weeks served as stratifying variables by which to examine recurrence and severities of AE recurrences in future timeframes.

[4] = Months 3-6, overall rate for timeframe
[5] = Months 6-12, AE twice in Week 1
[6] = Months 6-12, overall rate for timeframe
[7] = Week 1, overall rate for timeframe
[8] = Weeks 2-4, overall rate for timeframe
[9] = Weeks 5-8, overall rate for timeframe

**Q.** Which MOAA/S-defined sedation ([1]; Months 3-6, AE once in Week 1) does the source give for `CN[C@]1(c2ccccc2Cl)CCCCC1=O` [esketamine, (S)-2-(2-chlorophenyl)-2-(methylamino)cyclohexanone] here?
**A.** Its MOAA/S-defined sedation is 47.7%.

**Q.** What about the MOAA/S-defined sedation ([1]; Months 3-6, AE twice in Week 1) of the same compound?
**A.** The MOAA/S-defined sedation was 74.5%.

**Q.** What about the MOAA/S-defined sedation ([1]; Months 3-6, No AE in Week 1) of the same compound?
**A.** The MOAA/S-defined sedation was 23.8%.

**Q.** What about the MOAA/S-defined sedation [1, 4] of the same compound?
**A.** Its MOAA/S-defined sedation is 37.5%.

**Q.** And the MOAA/S-defined sedation ([1]; Months 6-12, AE once in Week 1)?
**A.** Its MOAA/S-defined sedation is 38.3%.

**Q.** And the MOAA/S-defined sedation [1, 5]?
**A.** Its MOAA/S-defined sedation is 51.8%.

**Q.** And the MOAA/S-defined sedation ([1]; Months 6-12, No AE in Week 1)?
**A.** The MOAA/S-defined sedation was 18.8%.

**Q.** What about the MOAA/S-defined sedation [1, 6] of the same compound?
**A.** The MOAA/S-defined sedation was 28.4%.

**Q.** What about the MOAA/S-defined sedation [1, 7] of the same compound?
**A.** The MOAA/S-defined sedation was 38.1%.

**Q.** What about the MOAA/S-defined sedation ([1]; Weeks 2-4, AE once in Week 1) of the same compound?
**A.** The MOAA/S-defined sedation was 65.7%.

**Q.** And the MOAA/S-defined sedation ([1]; Weeks 2-4, AE twice in Week 1)?
**A.** The MOAA/S-defined sedation was 95.4%.

**Q.** And the MOAA/S-defined sedation ([1]; Weeks 2-4, No AE in Week 1)?
**A.** Its MOAA/S-defined sedation is 22.0%.

**Q.** And the MOAA/S-defined sedation [1, 8]?
**A.** The MOAA/S-defined sedation was 44.2%.

**Q.** And the MOAA/S-defined sedation ([1]; Weeks 5-8, AE once in Week 1)?
**A.** Its MOAA/S-defined sedation is 42.0%.

**Q.** What about the MOAA/S-defined sedation ([1]; Weeks 5-8, AE twice in Week 1) of the same compound?
**A.** Its MOAA/S-defined sedation is 81.4%.

**Q.** What about the MOAA/S-defined sedation ([1]; Weeks 5-8, No AE in Week 1) of the same compound?
**A.** Its MOAA/S-defined sedation is 15.8%.

**Q.** What about the MOAA/S-defined sedation [1, 9] of the same compound?
**A.** The MOAA/S-defined sedation was 33.1%.

**Q.** What about the “MOAA/S mean recurrence scores” value ([1]; after Week 1 or Week 4, regardless of highest MOAA/S) of the same compound?
**A.** The value was 3.5-4.0.

**Q.** What about the “MOAA/S mean recurrence score, single patient exception” value ([1]; human, in vivo, other: intranasal) of the same compound?
**A.** Its value is 3.25.

**Q.** What about the “measure-based sedation not reported during Week 1, patients” value ([1]; human, in vivo, other: intranasal, 1 week) of the same compound?
**A.** Its value is 62%.

**Q.** And the “Measured-based increased blood pressure” value ([2]; Months 3-6, AE once in Week 1)?
**A.** The value was 6.3%.

**Q.** What about the “Measured-based increased blood pressure” value ([2]; Months 3-6, AE twice in Week 1) of the same compound?
**A.** The value was 33.3%.

**Q.** And the “Measured-based increased blood pressure” value ([2]; Months 3-6, No AE in Week 1)?
**A.** Its value is 2.4%.

**Q.** What about the “Measured-based increased blood pressure” value [2, 4] of the same compound?
**A.** The value was 2.7%.

**Q.** What about the “Measured-based increased blood pressure” value ([2]; Months 6-12, AE once in Week 1) of the same compound?
**A.** The value was 6.3%.

**Q.** What about the “Measured-based increased blood pressure” value [2, 5] of the same compound?
**A.** The value was 0%.

**Q.** What about the “Measured-based increased blood pressure” value ([2]; Months 6-12, No AE in Week 1) of the same compound?
**A.** The value was 3.1%.

**Q.** What about the “Measured-based increased blood pressure” value [2, 6] of the same compound?
**A.** The value was 3.2%.

**Q.** What about the “Measured-based increased blood pressure” value [2, 7] of the same compound?
**A.** Its value is 3.6%.

**Q.** What about the “Measured-based increased blood pressure” value ([2]; Weeks 2-4, AE once in Week 1) of the same compound?
**A.** The value was 35.7%.

**Q.** What about the “Measured-based increased blood pressure” value ([2]; Weeks 2-4, AE twice in Week 1) of the same compound?
**A.** Its value is 80.0%.

**Q.** What about the “Measured-based increased blood pressure” value ([2]; Weeks 2-4, No AE in Week 1) of the same compound?
**A.** Its value is 3.4%.

**Q.** What about the “Measured-based increased blood pressure” value [2, 8] of the same compound?
**A.** Its value is 4.7%.

**Q.** What about the “Measured-based increased blood pressure” value ([2]; Weeks 5-8, AE once in Week 1) of the same compound?
**A.** Its value is 17.9%.

**Q.** What about the “Measured-based increased blood pressure” value ([2]; Weeks 5-8, AE twice in Week 1) of the same compound?
**A.** The value was 60.0%.

**Q.** What about the “Measured-based increased blood pressure” value ([2]; Weeks 5-8, No AE in Week 1) of the same compound?
**A.** Its value is 2.6%.

**Q.** What about the “Measured-based increased blood pressure” value [2, 9] of the same compound?
**A.** Its value is 3.4%.

**Q.** And the “clinician-reported dissociation mean recurrence severity score” value ([3]; AE moderate in Week 1, Months 3-6)?
**A.** The value was 1.4.

**Q.** What about the “clinician-reported dissociation mean recurrence severity score” value ([3]; AE moderate in Week 1, Months 6-12) of the same compound?
**A.** Its value is 1.5.

**Q.** And the “clinician-reported dissociation mean recurrence severity score” value ([3]; AE moderate in Week 1, Weeks 2-4)?
**A.** The value was 1.5.

**Q.** And the “clinician-reported dissociation mean recurrence severity score” value ([3]; AE moderate in Week 1, Weeks 5-8)?
**A.** The value was 1.3.

**Q.** And the “clinician-reported dissociation mean recurrence severity score” value ([3]; AE severe in Week 1, Months 3-6)?
**A.** Its value is 1.2.

**Q.** What about the “clinician-reported dissociation mean recurrence severity score” value ([3]; AE severe in Week 1, Months 6-12) of the same compound?
**A.** Its value is 1.6.

**Q.** And the “clinician-reported dissociation mean recurrence severity score” value ([3]; AE severe in Week 1, Weeks 2-4)?
**A.** The value was 1.5.

**Q.** And the “clinician-reported dissociation mean recurrence severity score” value ([3]; AE severe in Week 1, Weeks 5-8)?
**A.** The value was 1.8.

**Q.** And the “patients with a severe recurrence” value ([3]; all clinician-reported AEs except dissociation, any observation period following Week 1 or 4)?
**A.** The value was less than 5 patients.

**Q.** What about the “patients with a moderate recurrence” value ([3]; clinician-reported AEs except dissociation, dizziness, vertigo and nausea, any observation period) of the same compound?
**A.** Its value is less than 10 patients.

**Q.** And the “reported severity of dissociation, dizziness, nausea, sedation, vertigo, increased blood pressure” value ([3]; initial incidence and recurrence)?
**A.** Its value is “mostly mild and rarely severe”.

**Q.** And the “clinician-reported dissociation mean recurrence severity score” value ([3]; no dissociation in Week 1, all timeframes)?
**A.** The value was 1.3.

**Q.** And the severity of recurrences ([3]; regardless of highest severity in Weeks 1 or 4)?
**A.** Its severity of recurrences is “mild to moderate”.
